Structures are written as SMILES. Like-named read-outs stand apart in the source and are kept apart here.

Experiment [1] concerns maize callus tissue (unselected parent, A188 x B73). Put plainly: Callus culture growth inhibition by 5MT, unselected parent tissue. The class given is cell-based. To be noted: for IC50: Zea mays, 672 h. How it is done: Friable, embryogenic maize callus cultures were initiated from hybrid immature embryos produced by pollination of inbred line A188 plants (University of Minnesota, Crop Improvement Association) with pollen of Inbred line B73 plants (Iowa State University). Ears were harvested when embryos had reached a length of 1.5 to 2.0 mm. The whole ear was surface sterilized in […] commercial bleach (2.63% w/v sodium hypochlorite) for 20 minutes at room temperature. The ears were then washed with sterile distilled, deionized water. Immature embryos were aseptically isolated and placed on nutrient agar initiation/maintenance media with the root/shoot axis exposed to the media. Initiation/maintenance media consisted of N6 basal media (Chih-ching in Proceedings of Symposium on Plant Tissue Culture, May 25-30, 1978, Science Press, Peking, pp. 43-50) with 2% (w/v) sucrose, 1.5 mg per liter 2,4-dichlorophenoxyacetic acid (2,4-D), 6 mM proline, and 0.9% (w/v) agar.
The immature embryos were incubated at 26° C. in the dark. Cell proliferations from the scutellum of the immature embryos were evaluated for friable consistency and the presence of well defined somatic embryos. Tissue with this morphology was transferred to fresh media 10 to 14 days after the initial plating of the immature embryos. The tissue was then subcultured on a routine basis every 12 to 16 days. Sixty to eighty milligram quantities of tissue were removed from pieces of tissue that had reached a size of approximately one gram and transferred to fresh media. Subculturing always involved careful visual monitoring to be sure that only tissue of the correct morphology was maintained. The presence of the somatic embryos ensured that the cultures would give rise to plants under the proper conditions.
(§1) The tryptophan analog, 5-methyltryptophan (5MT), was used for selection of tryptophan overproducer mutants as discussion in Section 5 supra. The effect of various concentrations of 5MT on callus growth on solid media was determined. Quantities of tissue averaging 50 mg in size were transferred to nutrient agar maintenance media containing 5MT concentrations ranging from 1.0 to 200 μM. Four tissue pieces were placed on each plate with four plates per analog concentration. After 28 days growth, the tissue was weighed again.

The test system of a further experiment is maize line C28 callus. As to the kind of experiment: Four week callus growth inhibition study, resistant line C28. The class given is cell-based. The procedure: as §1
For each transfer all tissue showing growth and somatic embryo forming ability were placed on fresh media. At the third transfer, the concentration of 5MT was increased to 100 μM. During the course of the selection process, the total number of lines decreased as the analog mediated growth inhibition became more intense. Two lines however, increased in size and by the end of the fourth month of selection were identified as resistant to 5MT. These cell lines were identified as maize line C28 and C66. […]
Four week growth inhibition studies were carried out with 5MT as described supra. The level of 5MT giving 50% growth inhibition was determined to be between 300 and 400 μM for the C28 line compared to 3 to 10 μM for unselected parent tissue. […]

The subject of experiment [2] is anthranilate synthase (crude callus extracts: AB108 control, K17 line of C28). Put plainly: Anthranilate synthase assay with 5MT as enzyme inhibitor. The class given is biochemical, maize. To be noted: 30° C., 30 minutes, 0.25 mM chorismate, 20 mM L-glutamine; FIG. 4. How it is done:
Assays were conducted to determine whether 5MT resistance was conferred by an alteration in the gene that codes for the anthranilate synthase enzyme. Crude enzyme extract of AB108 control callus and the selected K17 line of C28 callus were prepared as described below. The K17 line of C28 was derived from a regenerated C28 plant crossed with a control plant and then self-pollinated. Immature embryos were then cultured and a callus line developed as described previously.
Plant callus tissue was ground using a mortar and pestle and extracted with 0.2 M Tris-HCl, pH 8.2, 60% glycerol, 0.2 mM dithiothreitol (DTT), 0.2 mM ethylenediaminetetraacetic acid (EDTA), 1.0 mM magnesium sulfate (MgSO4), 20 mM sodium chloride (NaCl) and 1.0 mM L-tryptophan. One ml extraction buffer was used per 2 g callus. The extract was centrifuged at 10,000×g for 25 minutes at 4° C. The supernatant was applied to a 3 cm×15 cm Bio Gel-P6 column (Bio-Rad, Richmond, Calif.) equilibrated with 0.1 M Tris-HCl, pH 7.6, 10% glycerol, 0.1 mM DTT and 0.1 mM EDTA and eluted with the same buffer. 0.75 ml fractions were collected and fractions containing protein were pooled. […]
Assays were conducted in 1 ml volumes as follows. […] The fluorescence due to the production of anthranilate was measured in the 3.5 ml extractant using a Kratos FS950 fluorimeter (Kratos Analytical Instruments, Ramsey, N.J.).

The test system of the next experiment is maize line C66 callus. Put plainly: Callus growth inhibition study, resistant line C66. The class given is cell-based. To be noted: C66, 5MT at 100 μM or below. The procedure:
as §1
For each transfer all tissue showing growth and somatic embryo forming ability were placed on fresh media. At the third transfer, the concentration of 5MT was increased to 100 μM. During the course of the selection process, the total number of lines decreased as the analog mediated growth inhibition became more intense. Two lines however, increased in size and by the end of the fourth month of selection were identified as resistant to 5MT. These cell lines were identified as maize line C28 and C66. […] Throughout this selection process, the selected cell lines maintained a friable appearance that was similar to the appearance of the original parent cell line.

As to `Cc1ccc2[nH]cc(C[C@H](N)C(=O)O)c2c1` [5MT, 5-methyltryptophan], the IC50 in experiment [1] (callus on solid maintenance media, 28 days growth, 1.0 to 200 μM 5MT, read-out: 5MT concentration giving half maximal inhibition of growth rate) is 3 to 10 µM; in experiment [1] (unselected parent tissue, four week growth inhibition, read-out: Level of 5MT giving 50% growth inhibition), 3 to 10 µM; in the experiment on maize line C28 callus (Zea mays, 672 h, C28 line, four week growth inhibition, read-out: Level of 5MT giving 50% growth inhibition), 300 to 400 µM. Further, the Cell death entry in experiment [1] (analog concentrations of 100 and 200 μM, 28 days) is “Cell death was observed”. Also, the “Growth inhibition by the analog compared to parental cell line AB1 (FIG. 2)” value is listed as “no longer seriously inhibited” in the experiment on maize line C28 callus (C28, 5MT at 100 μM or below) and “no longer seriously inhibited” in the experiment on maize line C66 callus. Besides, the “Fold higher 5MT level needed for 50% inhibition of C28 AS compared with control AS” value in experiment [2] was determined as 10 fold.

As for `N[C@@H](Cc1c[nH]c2ccccc12)C(=O)O` [Tryptophan], the “Reversal of growth inhibitory effects of 5MT” value in experiment [1] (tryptophan added to 5MT-inhibited callus) was “reverse all the growth inhibitory effects of 5MT”.

The record behind these values is US4581847A, “Tryptophan overproducer mutants of cereal crops” (Molecular Genetics Research and Development, priority 1984, dated 1986).
